Laboratory results from patent US20020058686A1, “Medicament” (SmithKline Beecham p.l.c., priority 1990, published 2002).

| melting point [°C] | SMILES |
| --- | --- |
| 178 to 181 | CCCSc1ncc(C[C@H](NC(=O)CCC)C(=O)O)n1Cc1ccccc1Cl [Example 1, 3-[(2-Chlorophenyl)methyl]-2-propylthio-N-butyrylhistidine] |
| 254 to 255 | CCCCc1nc2cc(Br)cc(C(=O)O)c2n1Cc1ccccc1Cl [Example 4, 5-Bromo-2-n-butyl-1-(2-chlorophenyl)methyl-1H-benzimidazole-7-carboxylic Acid] |
